Test results taken from ChEMBL document CHEMBL1201862, “PubChem BioAssay data set” (2004).
Active and inactive are the calls of the source.

Key:
BJ = experiment: cells; format: functional, cell-based; conditions: Homo sapiens
[1] = Intein inhibitors as potential Tuberculosis drugs, a cytotoxicity screen. [Related pubchem assays (depositor defined):AID2221, AID2223, AID434968, AID435010, AID449749, AID449750, AID489010]; format: functional
Melanocortin receptor 4 = Melanocortin receptor 4 (Homo sapiens, UniProt P32245); experiment: MC4R antagonist potency on cAMP, dose response, cell-based, TR-FRET, biased antagonists (AID 602298); format: functional;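 note: antagonist potency against agonist-stimulated cAMP production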
[2] = biological target: T1, Sentrin-specific protease 8 (Homo sapiens, UniProt Q96LD8); experiment: SENP8 protease inhibitors, SAR follow-up, biochemical, luminescence (AID 504501); format: functional
T1 sequence (Q96LD8 whole entry): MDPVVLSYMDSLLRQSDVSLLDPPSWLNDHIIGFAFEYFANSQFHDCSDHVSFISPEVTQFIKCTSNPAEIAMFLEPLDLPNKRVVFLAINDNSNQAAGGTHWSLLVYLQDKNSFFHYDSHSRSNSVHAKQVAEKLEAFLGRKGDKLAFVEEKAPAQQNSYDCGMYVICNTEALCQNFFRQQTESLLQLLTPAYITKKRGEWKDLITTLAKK

[3] = biological target: T2, Sentrin-specific protease 6 (Homo sapiens, UniProt Q9GZR1); experiment: SAR Analysis of small molecule inhibitors of Sentrin-specific protease 6 (SENP6) using a Luminescent assay. [Related pubchem assays (depositor defined):AID2582, AID2599]; format: functional
T2 sequence (Q9GZR1 whole entry): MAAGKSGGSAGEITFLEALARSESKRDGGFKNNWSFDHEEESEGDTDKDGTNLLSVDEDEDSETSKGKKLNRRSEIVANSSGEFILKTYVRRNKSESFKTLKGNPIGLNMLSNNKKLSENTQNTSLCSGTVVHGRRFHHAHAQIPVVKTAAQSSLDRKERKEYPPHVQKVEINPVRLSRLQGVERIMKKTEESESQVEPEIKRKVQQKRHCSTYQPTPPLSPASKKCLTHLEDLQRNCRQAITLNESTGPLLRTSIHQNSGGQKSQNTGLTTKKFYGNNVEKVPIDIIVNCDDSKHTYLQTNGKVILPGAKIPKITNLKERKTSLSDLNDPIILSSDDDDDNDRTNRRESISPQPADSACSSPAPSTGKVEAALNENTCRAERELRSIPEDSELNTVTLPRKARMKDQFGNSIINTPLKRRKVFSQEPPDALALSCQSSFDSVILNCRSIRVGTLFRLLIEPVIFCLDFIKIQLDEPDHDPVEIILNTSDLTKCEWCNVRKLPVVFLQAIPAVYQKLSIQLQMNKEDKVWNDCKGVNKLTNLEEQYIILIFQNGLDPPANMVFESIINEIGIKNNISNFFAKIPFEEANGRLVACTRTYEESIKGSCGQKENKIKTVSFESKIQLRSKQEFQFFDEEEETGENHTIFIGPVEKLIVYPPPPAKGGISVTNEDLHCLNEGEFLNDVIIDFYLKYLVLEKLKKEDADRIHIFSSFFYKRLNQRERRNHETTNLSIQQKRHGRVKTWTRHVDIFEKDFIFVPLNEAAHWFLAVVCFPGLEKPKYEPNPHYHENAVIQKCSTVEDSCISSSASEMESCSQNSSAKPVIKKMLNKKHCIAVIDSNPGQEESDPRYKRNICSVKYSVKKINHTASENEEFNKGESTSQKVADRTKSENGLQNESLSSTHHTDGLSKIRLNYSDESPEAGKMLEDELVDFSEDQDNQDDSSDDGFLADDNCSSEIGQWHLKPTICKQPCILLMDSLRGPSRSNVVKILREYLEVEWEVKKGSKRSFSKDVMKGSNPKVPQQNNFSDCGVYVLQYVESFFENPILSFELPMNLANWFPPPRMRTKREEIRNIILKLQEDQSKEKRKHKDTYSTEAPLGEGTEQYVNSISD

Nonstructural protein 1 = Nonstructural protein 1 (Influenza A virus, UniProt Q194T2); format: functional, Influenza A virus (A/California/07/2009(H1N1))
[4] = biological target: Glucose-6-phosphate 1-dehydrogenase (Homo sapiens, UniProt P11413); experiment: human G6PD enzyme inhibitors, dose response, selectivity assay for P. falciparum G6PD inhibitor project, biochemical, fluorescence (AID 504792); format: functional
Vero = Vero cell cytotoxicity, cytotoxicity control for flavivirus capping enzyme inhibitors (AID 588742); format: functional; conditions: Chlorocebus sabaeus
[5] = biological target: T3, Polyadenylate-binding protein 1 (Homo sapiens, UniProt P11940); experiment: PABP1 MLLE–PAM2 interaction inhibitors, dose response, miRNA deadenylation inhibitor project, biochemical, fluorescence polarization, Cy5-PAM2 peptide, secondary (AID 602260); format: functional; conditions: read-out: IC50_Mean
[6] = biological target: T3, Polyadenylate-binding protein 1; experiment: PABP1 MLLE–PAM2 binding inhibitor potency, dose response, biochemical, fluorescence polarization, FITC-PAM2 peptide (AID 602259); format: functional; conditions: read-out: IC50_Mean
[7] = CAL PDZ domain peptide-binding inhibitors, dose response, biochemical, fluorescence polarization, untagged CAL PDZ, dry powder (AID 602255); format: functional
[8] = BHK-21 cell cytotoxicity, cytotoxicity control for flavivirus guanylyltransferase probe project, secondary screen (AID 624078); format: functional
[9] = biological target: T1, Sentrin-specific protease 8; format: functional
Caspase-6 = biological target: T4, Caspase-6 (Homo sapiens, UniProt P55212); experiment: human caspase-6 inhibitors, dose response, biochemical, VEID-R110 fluorescence, cherry-pick (AID 720632)
T4 sequence (P55212 whole entry): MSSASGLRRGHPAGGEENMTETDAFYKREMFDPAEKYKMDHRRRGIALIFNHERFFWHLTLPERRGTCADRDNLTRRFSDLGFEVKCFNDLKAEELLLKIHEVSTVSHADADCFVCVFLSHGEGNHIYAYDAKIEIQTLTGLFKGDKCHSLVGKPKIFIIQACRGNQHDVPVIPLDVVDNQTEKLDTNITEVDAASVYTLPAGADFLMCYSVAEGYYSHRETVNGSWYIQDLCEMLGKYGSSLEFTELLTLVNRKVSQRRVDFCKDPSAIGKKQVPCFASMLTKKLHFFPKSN

T3 sequence (P11940 whole entry): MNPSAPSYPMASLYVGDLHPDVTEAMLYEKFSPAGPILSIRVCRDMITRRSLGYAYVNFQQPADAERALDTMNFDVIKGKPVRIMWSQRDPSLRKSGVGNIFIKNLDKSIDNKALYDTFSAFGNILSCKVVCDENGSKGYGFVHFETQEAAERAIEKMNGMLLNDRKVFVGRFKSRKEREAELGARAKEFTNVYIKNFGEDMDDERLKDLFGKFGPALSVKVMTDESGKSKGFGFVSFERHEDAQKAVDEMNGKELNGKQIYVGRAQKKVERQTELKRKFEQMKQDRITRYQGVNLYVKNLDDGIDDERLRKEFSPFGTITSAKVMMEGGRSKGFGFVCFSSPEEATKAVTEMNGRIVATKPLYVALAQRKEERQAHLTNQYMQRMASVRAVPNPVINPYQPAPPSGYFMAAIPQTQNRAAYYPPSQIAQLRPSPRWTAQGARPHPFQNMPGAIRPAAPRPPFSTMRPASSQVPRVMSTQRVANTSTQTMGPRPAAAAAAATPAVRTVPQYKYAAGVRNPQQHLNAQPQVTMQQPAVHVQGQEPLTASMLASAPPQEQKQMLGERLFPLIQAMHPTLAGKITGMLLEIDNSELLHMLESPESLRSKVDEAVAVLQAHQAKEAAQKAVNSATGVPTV
Chain of Glucose-6-phosphate 1-dehydrogenase (P11413 whole entry): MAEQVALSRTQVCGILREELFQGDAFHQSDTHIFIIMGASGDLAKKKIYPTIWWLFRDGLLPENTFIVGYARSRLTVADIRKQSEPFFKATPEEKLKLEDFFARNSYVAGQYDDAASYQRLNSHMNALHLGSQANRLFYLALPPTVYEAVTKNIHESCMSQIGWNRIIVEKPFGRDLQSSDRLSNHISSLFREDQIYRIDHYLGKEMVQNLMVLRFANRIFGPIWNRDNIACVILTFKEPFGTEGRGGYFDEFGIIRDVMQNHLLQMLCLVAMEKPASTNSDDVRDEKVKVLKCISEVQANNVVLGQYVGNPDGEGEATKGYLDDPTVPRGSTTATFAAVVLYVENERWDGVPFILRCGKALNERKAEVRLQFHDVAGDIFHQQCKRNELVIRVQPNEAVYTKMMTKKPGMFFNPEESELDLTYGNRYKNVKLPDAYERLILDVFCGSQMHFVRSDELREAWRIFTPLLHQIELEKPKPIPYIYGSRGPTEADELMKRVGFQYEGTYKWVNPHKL
Chain of Nonstructural protein 1 (Q194T2 whole entry): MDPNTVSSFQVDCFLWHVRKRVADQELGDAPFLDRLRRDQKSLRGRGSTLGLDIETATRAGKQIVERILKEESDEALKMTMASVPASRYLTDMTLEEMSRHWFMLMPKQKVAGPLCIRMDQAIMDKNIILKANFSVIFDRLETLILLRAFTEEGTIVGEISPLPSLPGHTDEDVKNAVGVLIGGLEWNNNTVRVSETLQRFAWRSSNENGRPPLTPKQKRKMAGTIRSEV
Chain of Melanocortin receptor 4 (P32245 whole entry): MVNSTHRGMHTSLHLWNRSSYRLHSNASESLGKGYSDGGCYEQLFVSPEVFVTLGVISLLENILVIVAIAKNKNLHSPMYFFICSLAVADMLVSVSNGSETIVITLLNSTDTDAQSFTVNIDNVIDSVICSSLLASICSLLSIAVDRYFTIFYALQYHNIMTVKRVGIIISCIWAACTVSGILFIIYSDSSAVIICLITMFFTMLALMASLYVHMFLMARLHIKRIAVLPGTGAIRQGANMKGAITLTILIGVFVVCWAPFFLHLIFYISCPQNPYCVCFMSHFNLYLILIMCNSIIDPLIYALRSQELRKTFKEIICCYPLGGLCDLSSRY

## Cc1nn(-c2ccccc2)c(Cl)c1CN(C(=O)CCl)c1ccc(Cl)cc1
BJ
  EC50: 2.82 µM (inconclusive)
[1]
  CC50: 2.06 µM (active)
Melanocortin receptor 4
  IC50: > 64.6 µM (inactive)

## Oc1ccccc1/C=C/c1noc(-c2ccccc2O)n1
[2]
  IC50: > 99 µM (inactive)
[3]
  IC50: > 99 µM (inactive)
cells
  EC50: > 67.6 µM (inactive)

## Cc1cccc(N=Nc2ccc(N(C)C)cc2)c1
Nonstructural protein 1
  IC50: 31.6 µM (active)

## O=C(O)CSc1cc(NS(=O)(=O)c2ccc(Cl)cc2)c2ccccc2c1O
[4]
  IC50: 29.9 µM (inactive)
Vero
  CC50: 33.2 µM (active)
[5]
  IC50: > 66 µM (inactive)
[6]
  IC50: > 66 µM (inactive)
[7]
  AC50: 56.1 µM (active)
[8]
  CC50: 7.78 µM (active)

## COc1ccccc1N1C(=O)Cc2ccccc2C1=O
[9]
  IC50: > 100 µM (inactive)
Caspase-6
  AC50: 24.2 µM (active)
